Tests used:
[1] = tested on: human embryonic stem cell derived neural stem cells (NSCs); experiment: Neural Stem Cell Proliferation Assay (neurogenesis assay, ATP levels by CellTiterGlo); type: cell-based; conditions: 96 h, compound concentration at which 150% activity of control (100%) is reached, NSC proliferation by ATP level after 4 days incubation, dose response 8 μM to 8 nM
Summary of the method: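 Read-out is CellTiterGlo ATP luminescence after 4-day culture (37 °C, 5% CO2) of dual-SMAD-derived human ESC NSCs, dosed 4 h post-seeding at 8 μM to 8 nM (11 points, 2-fold). EC150 marks the concentration reaching 150% of the media-only control (0.25% DMSO).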

Row | SMILES | melting point [°C] | EC (150% of control) [1] [µM]
1 | Cc1c2n(c3c(-c4ccc(F)c(F)c4)cc(Cl)cc13)CCCNC2=O [Example 68, 9-Chloro-7-(3,4-difluoro-phenyl)-11-methyl-2,3,4,5-tetrahydro-[1,4]diazepino[1,2-a]indol-1-one] | 254 | 0.12
2 | Cc1c2n(c3c(-c4ccc(F)cc4)cc(Cl)cc13)CCCNC2=O [Example 70, 9-Chloro-7-(4-fluoro-phenyl)-11-methyl-2,3,4,5-tetrahydro-[1,4]diazepino[1,2-a]indol-1-one] | 260 | 0.063
3 | COc1ccc(-c2cc(Cl)cc3c(C)c4n(c23)CCCNC4=O)cc1 [Example 71, 9-Chloro-7-(4-methoxy-phenyl)-11-methyl-2,3,4,5-tetrahydro-[1,4]diazepino[1,2-a]indol-1-one] | 240.5 | 0.021
4 | Cc1c2n(c3c(-c4ccc(F)c(F)c4)cc(F)cc13)CCNC2=O [Example 72, 6-(3,4-Difluoro-phenyl)-8-fluoro-10-methyl-3,4-dihydro-2H-pyrazino[1,2-a]indol-1-one] | 229.5 | 0.12
5 | N#Cc1cc(-c2ccc(Cl)cc2)c2c(c1)cc1n2CCNC1=O [Example 77, 6-(4-Chloro-phenyl)-1-oxo-1,2,3,4-tetrahydro-pyrazino[1,2-a]indole-8-carbonitrile] | 316.5 | 0.02
6 | N#Cc1cc(-c2ccc(F)cc2)c2c(c1)cc1n2CCNC1=O [Example 78, 6-(4-Fluoro-phenyl)-1-oxo-1,2,3,4-tetrahydro-pyrazino[1,2-a]indole-8-carbonitrile] | 297.5 | 0.012
7 | Cc1c2n(c3c(-c4ccccc4)cc(F)cc13)CCNC2=O [Example 80, 8-Fluoro-10-methyl-6-phenyl-3,4-dihydro-2H-pyrazino[1,2-a]indol-1-one] | 244 | 0.098

Now from value to compound, other results behind:

Row | melting point [°C] | SMILES | EC (150% of control) [1] [µM]
8 | 271 | Cc1c2n(c3c(-c4ccc(Cl)cc4)cc(Cl)cc13)CCCNC2=O [Example 69, 9-Chloro-7-(4-chloro-phenyl)-11-methyl-2,3,4,5-tetrahydro-[1,4]diazepino[1,2-a]indol-1-one] | 0.061
9 | 209.5 | Cc1c2n(c3c(-c4ccc(Cl)cc4)cc(F)cc13)CCNC2=O [Example 73, 6-(4-Chloro-phenyl)-8-fluoro-10-methyl-3,4-dihydro-2H-pyrazino[1,2-a]indol-1-one] | 0.017
10 | 182 | Cc1c2n(c3c(-c4ccc(F)cc4)cc(F)cc13)CCNC2=O [Example 74, 8-Fluoro-6-(4-fluoro-phenyl)-10-methyl-3,4-dihydro-2H-pyrazino[1,2-a]indol-1-one] | 0.072
11 | 237 | COc1ccc(-c2cc(F)cc3c(C)c4n(c23)CCNC4=O)cc1 [Example 75, 8-Fluoro-6-(4-methoxy-phenyl)-10-methyl-3,4-dihydro-2H-pyrazino[1,2-a]indol-1-one] | 0.005
12 | 289.5 | N#Cc1cc(-c2ccc(F)c(F)c2)c2c(c1)cc1n2CCNC1=O [Example 76, 6-(3,4-Difluoro-phenyl)-1-oxo-1,2,3,4-tetrahydro-pyrazino[1,2-a]indole-8-carbonitrile] | 0.02
13 | 278.5 | COc1ccc(-c2cc(C#N)cc3cc4n(c23)CCNC4=O)cc1 [Example 79, 6-(4-Methoxy-phenyl)-1-oxo-1,2,3,4-tetrahydro-pyrazino[1,2-a]indole-8-carbonitrile] | 0.004
14 | 226 | Cc1ccc(-c2cc(F)cc3c(C)c4n(c23)CCNC4=O)cc1 [Example 81, 8-Fluoro-10-methyl-6-p-tolyl-3,4-dihydro-2H-pyrazino[1,2-a]indol-1-one] | 0.014
